Format: in vivo, male Sprague-Dawley rats
Conditions: rats, saline solution, 50 mg/kg

CO[C@H]1O[C@H](COS(=O)(=O)O)[C@@H](O[C@@H]2O[C@@H](C(=O)O)[C@@H](O[C@H]3O[C@H](COS(=O)(=O)O)[C@@H](O[C@@H]4O[C@H](C(=O)O)[C@@H](O[C@H]5O[C@H](COS(=O)(=O)O)[C@@H](O)[C@H](O)[C@H]5NS(=O)(=O)O)[C@H](O)[C@H]4O)[C@H](OS(=O)(=O)O)[C@H]3NS(=O)(=O)O)[C@H](O)[C@H]2OS(=O)(=O)O)[C@H](O)[C@H]1NS(=O)(=O)O [Fpx, Fondaparinux]
oral absorption: not absorbed
